Laboratory results from patent publication US4604380A, “C-23-substituted mycaminosyltylonolide compounds, pharmaceutical compositions and methods of use” (Eli Lilly and Company, priority 1985, dated 1986).
Values after ≈ are worked out from the molar mass of the structure shown. Values joined by “and” are separate entries in the source; they are usually repeats but may differ in a detail not shown here. Equal values may be shown once. Read-outs that look alike come from different tables or passages of the source.

What was measured:
[1] = test system: Streptococcous pneumoniae; assay: ED50 vs. Streptococcous pneumoniae experimental infection in mice (Table VII); assay type: in vivo; settings: Mus musculus, sc, subcutaneous, two doses, read-out: ED50 Subcutaneous
Description: (§1) Certain formula 1a compounds have also shown in vivo antimicrobial activity against experimental bacterial infections. When two doses of test compound were administered to mice in experimental infections, the activity observed was measured as an ED50 value [effective dose in mg/kg to protect 50% of the test animals: see Warren Wick, et al., J. Bacteriol. 81, 233-235 (1961)].

[2] = test system: Pasteurella hemolytica 23C; assay: MIC, conventional broth-dilution microtiter test (Table IV); assay type: cell-based; settings: broth-dilution microtiter; Pasteurella hemolytica 23C; read-out: MIC
Description: (§2) The MIC's s in Table III were determined by standard agar-dilution assays. The MIC's in Table IV were obtained using a conventional broth-dilution microtiter test.

[3] = test system: Staphylococcus aureus 19C; assay: as above; assay type: cell-based
Description: as §2

[4] = test system: Pasteurella multocida 68C; assay: as above; assay type: cell-based; settings: broth-dilution microtiter; Pasteurella multocida 68C; read-out: MIC
Description: as §2

[5] = test system: Pasteurella multocida 22A; assay: as above; assay type: cell-based; settings: broth-dilution microtiter; Pasteurella multocida 22A; read-out: MIC
Description: as §2

[6] = test system: Pasteurella multocida 17E; assay: as above; assay type: cell-based
Description: as §2

[7] = test system: Pasteurella hemolytica 22C; assay: as above; assay type: cell-based
Description: as §2

[8] = test system: Pasteurella multocida 40G; assay: as above; assay type: cell-based; settings: broth-dilution microtiter; Pasteurella multocida 40G; read-out: MIC
Description: as §2

[9] = test system: Pasteurella hemolytica 41D; assay: as above; assay type: cell-based; settings: broth-dilution microtiter; Pasteurella hemolytica 41D; read-out: MIC
Description: as §2

[10] = test system: Mycoplasma gallisepticum 36H; assay: as above; assay type: cell-based; settings: Mycoplasmoides gallisepticum
Description: as §2

[11] = test system: Streptococcus sp. 19F; assay: as above; assay type: cell-based
Description: as §2

[12] = test system: Mycoplasma synoviae 40A; assay: as above; assay type: cell-based; settings: Mycoplasmopsis synoviae
Description: as §2

[13] = test system: Bordetella bronchisepticum 95B; assay: as above; assay type: cell-based
Description: as §2

[14] = test system: Mycoplasma hyopneumoniae S5972; assay: as above; assay type: cell-based; settings: Mesomycoplasma hyopneumoniae
Description: as §2

[15] = test system: Mycoplasma gallisepticum 15E; assay: as above; assay type: cell-based; settings: Mycoplasmoides gallisepticum
Description: as §2

[16] = test system: Mycoplasma gallisepticum 29C; assay: as above; assay type: cell-based; settings: Mycoplasmoides gallisepticum, 29C
Description: as §2

[17] = test system: Pasteurella multocida 60A; assay: as above; assay type: cell-based
Description: as §2

[18] = test system: Streptococcus pyogenes; assay: ED50 vs Streptococcus pyogenes experimental infection in mice (Table VI); assay type: in vivo; settings: two doses, several values = results from more than one test
Description: as §1

[19] = test system: Staphylococcus aureus; assay: ED50 vs. Staphylococcus aureus experimental infection in mice (Table V); assay type: in vivo; settings: sc, subcutaneous, two doses, dose protecting 50% of animals, read-out: ED50 Subcutaneous
Description: as §1

[20] = test system: Streptococcus pneumoniae Park I; assay: microbe, parasite or virus in culture; assay type: cell-based; settings: Streptococcus pneumoniae
Description: as §2

[21] = test system: Pasteurella multocida; assay: Activity in Pasteurella multocida-infected one-day-old chicks (Table VIII); assay type: in vivo; settings: subcutaneous 30 mg/kg × 2, 1 and 4 hours post-challenge, all non-medicated chicks died within 24 hours
Description: Table VIII summarizes the results of tests in which illustrative compounds were evaluated against a Pasteurella infection in one-day-old chicks. The compounds were administered parenterally after challenge of the chicks with Pasteurella multocida (0.1 mL of a 10^-4 dilution of a twenty-hour tryptose broth culture of an avian P. multocida given subcutaneously). In these tests, all non-medicated infected chicks died within 24 hours of Pasteurella challenge. In the tests summarized in Table VIII, the compounds were administered by subcutaneous injection at a dosage of 30 mg/kg, 1 and 4 hours post-challenge of the chicks with P. multocida.

[22] = test system: Streptococcus Group D X66; assay: MIC, standard agar-dilution assay (Table III); assay type: cell-based
Description: as §2

[23] = test system: Staphylococcus aureus X400; assay: MIC, standard agar-dilution assay (Table III); assay type: cell-based
Description: as §2

[24] = test system: Staphylococcus aureus V41; assay: MIC, standard agar-dilution assay (Table III); assay type: cell-based; settings: Staphylococcus aureus V41, penicillin-resistant strain
Description: as §2

[25] = test system: Staphylococcus epidermidis 222; assay: MIC, standard agar-dilution assay (Table III); assay type: cell-based
Description: as §2

[26] = test system: Staphylococcus aureus S13E; assay: MIC, standard agar-dilution assay (Table III); assay type: cell-based
Description: as §2

[27] = test system: Streptococcus pyogenes C203; assay: MIC, standard agar-dilution assay (Table III); assay type: cell-based
Description: as §2

[28] = test system: Staphylococcus aureus X1.1; assay: MIC, standard agar-dilution assay (Table III); assay type: cell-based
Description: as §2

[29] = test system: Haemophilus influenzae C.L.; assay: MIC, standard agar-dilution assay (Table III); assay type: cell-based
Description: as §2

[30] = test system: Haemophilus influenzae 76; assay: MIC, standard agar-dilution assay (Table III); assay type: cell-based
Description: as §2

[31] = test system: Streptococcus Group D 2041; assay: MIC, standard agar-dilution assay (Table III); assay type: cell-based; settings: GROUPD2041
Description: as §2

[32] = test system: Staphylococcus epidermidis EPI1; assay: MIC, standard agar-dilution assay (Table III); assay type: cell-based; settings: Staphylococcus epidermidis, EPI1
Description: as §2

[33] = test system: Mycoplasma hyorhinis 29E; assay: MIC, conventional broth-dilution microtiter test (Table IV); assay type: cell-based; settings: broth-dilution microtiter; Mycoplasma hyorhinis 29E; read-out: MIC
Description: as §2

[34] = broth-dilution microtiter, Staphylococcus aureus 19C, read-out: MIC
[35] = broth-dilution microtiter, Pasteurella multocida 17E, bovine isolate, read-out: MIC
[36] = broth-dilution microtiter, Mycoplasma gallisepticum 36H, read-out: MIC
[37] = broth-dilution microtiter, Mycoplasma gallisepticum 15E, read-out: MIC
[38] = broth-dilution microtiter, Pasteurella multocida 60A, avian isolate, read-out: MIC
[39] = agar dilution, Staphylococcus epidermidis 222, read-out: MIC
[40] = agar dilution, Streptococcus pyogenes C203, read-out: MIC
[41] = agar dilution, Haemophilus influenzae C.L., ampicillin-sensitive strain, read-out: MIC
[42] = agar dilution, Haemophilus influenzae 76, ampicillin-resistant strain, read-out: MIC

SMILES	ED50 [1]	MIC [2]	MIC [3, 34]	MIC [4]	MIC [5]	MIC [6, 35]	MIC ([7]; Pasteurella, 22C)	MIC [8]	MIC [9]	MIC [11]	MIC [13]	MIC [16]	ED50 ([18]; po, read-out: ED50 Oral)	ED50 [19]	MIC [20]	Number of Deaths/Number Treated [21]	MIC [24]	MIC [26]	MIC [28]	MIC [32]	other results
CCC1OC(=O)CC(O)C(C)C(OC2OC(C)C(O)C(N(C)C)C2O)C(CC=O)CC(C)C(=O)C=CC(C)=CC1CN1CCCC12CCCCC2 (stereo not shown) [Compound 31, 23-deoxy-23-(1-azaspiro[4.5]decan-1-yl)-OMT]	9.22 mg/kg	0.39 mg/L (≈ 0.542 µM)	0.39 mg/L (≈ 0.542 µM)	0.39 mg/L (≈ 0.542 µM)	0.39 mg/L (≈ 0.542 µM)	0.39 mg/L (≈ 0.542 µM)	0.78 mg/L (≈ 1.08 µM)	0.195 mg/L (≈ 0.271 µM)	0.39 mg/L (≈ 0.542 µM)	< 0.048 mg/L	6.25 mg/L (≈ 8.69 µM)	0.097 mg/L (≈ 0.135 µM)	59.5 mg/kg	2.15 mg/kg	0.03 mg/L (≈ 0.0417 µM)	0/10 and 3/10	0.5 mg/L (≈ 0.695 µM)	0.5 mg/L (≈ 0.695 µM)	0.5 mg/L (≈ 0.695 µM)	0.5 mg/L (≈ 0.695 µM)	MIC [10, 36]: 50 mg/L (≈ 69.5 µM); MIC ([12]; broth-dilution microtiter, Mycoplasma synoviae 40A, read-out: MIC): 0.195 mg/L (≈ 0.271 µM); MIC ([14]; S5972): 0.097 mg/L (≈ 0.135 µM); MIC [15, 37]: 50 mg/L (≈ 69.5 µM); MIC [17, 38]: 0.39 mg/L (≈ 0.542 µM); MIC ([22]; agar dilution, Streptococcus Group D X66, read-out: MIC): 0.25 mg/L (≈ 0.348 µM); MIC ([23]; Staphylococcus aureus, X400): 0.5 mg/L (≈ 0.695 µM); MIC [25, 39]: 0.25 mg/L (≈ 0.348 µM); MIC [27, 40]: 0.125 mg/L (≈ 0.174 µM); MIC [29, 41]: 2 mg/L (≈ 2.78 µM); MIC [30, 42]: 2 mg/L (≈ 2.78 µM); MIC ([31]; agar dilution, Streptococcus Group D 2041, read-out: MIC): 0.25 mg/L (≈ 0.348 µM)
CCC1OC(=O)CC(O)C(C)C(OC2OC(C)C(O)C(N(C)C)C2O)C(CC=O)CC(C)C(=O)C=CC(C)=CC1CN1CC2CCC(CC2)C1 (stereo not shown) [Compound 17, 23-(3-azabicyclo[3.2.2]nonan-3-yl)-OMT]	> 10 mg/kg	0.39 mg/L (≈ 0.553 µM)		0.39 mg/L (≈ 0.553 µM)	0.39 mg/L (≈ 0.553 µM)			0.39 mg/L (≈ 0.553 µM)	0.39 mg/L (≈ 0.553 µM)	0.39 mg/L (≈ 0.553 µM)	6.25 mg/L (≈ 8.87 µM)	< 0.048 mg/L	> 100 mg/kg	2.31 mg/kg	0.06 mg/L (≈ 0.0851 µM)	10/10	0.5 mg/L (≈ 0.709 µM)	0.5 mg/L (≈ 0.709 µM)	0.5 mg/L (≈ 0.709 µM)	0.5 mg/L (≈ 0.709 µM)	MIC ([3]; Staphylococcus aureus, 19C): 0.78 mg/L (≈ 1.11 µM); MIC [33]: 0.39 mg/L (≈ 0.553 µM); MIC ([6]; Pasteurella multocida, 17E): 0.78 mg/L (≈ 1.11 µM); MIC ([7]; broth-dilution microtiter, Pasteurella hemolytica 22C, read-out: MIC): 0.39 mg/L (≈ 0.553 µM); MIC ([10]; 36H): 50 mg/L (≈ 70.9 µM); MIC ([12]; 40A): < 0.048 mg/L; MIC ([14]; S5972): 0.048 mg/L (≈ 0.0681 µM); MIC ([15]; 15E): 50 mg/L (≈ 70.9 µM); MIC ([17]; Pasteurella multocida, 60A): 0.78 mg/L (≈ 1.11 µM); ED50 ([18]; sc, subcutaneous, read-out: ED50 Subcutaneous): 9.09 mg/kg; ED50 Subcutaneous ([18]; subcutaneous): > 10 mg/kg × 2; MIC [22]: 0.5 mg/L (≈ 0.709 µM); MIC ([23]; Staphylococcus aureus, X400): 0.5 mg/L (≈ 0.709 µM); MIC ([25]; Staphylococcus epidermidis, 222): 0.25 mg/L (≈ 0.355 µM); MIC ([27]; Streptococcus pyogenes, C203): 0.25 mg/L (≈ 0.355 µM); MIC ([29]; Haemophilus influenzae): 2 mg/L (≈ 2.84 µM); MIC ([30]; Haemophilus influenzae, 76): 2 mg/L (≈ 2.84 µM); MIC [31]: 1 mg/L (≈ 1.42 µM)
CCC1OC(=O)CC(O)C(C)C(OC2OC(C)C(O)C(N(C)C)C2O)C(CC=O)CC(C)C(=O)C=CC(C)=CC1CN1CCCC2CCCCC21 (stereo not shown) [Compound 20, 23-deoxy-23-(decahydroquinolin-1-yl)-OMT]	5 mg/kg	0.78 mg/L (≈ 1.08 µM)	1.56 mg/L (≈ 2.17 µM)	0.78 mg/L (≈ 1.08 µM)	0.78 mg/L (≈ 1.08 µM)	0.78 mg/L (≈ 1.08 µM)	3.12 mg/L (≈ 4.34 µM)	0.39 mg/L (≈ 0.542 µM)	1.56 mg/L (≈ 2.17 µM)	< 0.048 mg/L	6.25 mg/L (≈ 8.69 µM)	> 0.048 mg/L	77 mg/kg	10 mg/kg	0.03 mg/L (≈ 0.0417 µM)	6/10 and 8/10	0.25 mg/L (≈ 0.348 µM)	0.25 mg/L (≈ 0.348 µM)	0.25 mg/L (≈ 0.348 µM)	0.25 mg/L (≈ 0.348 µM)	MIC [33]: 0.39 mg/L (≈ 0.542 µM); MIC [10, 36]: 0.78 mg/L (≈ 1.08 µM); MIC ([12]; 40A): < 0.048 mg/L; MIC ([14]; broth-dilution microtiter, Mycoplasma hyopneumoniae S5972, read-out: MIC): < 0.024 mg/L; MIC [15, 37]: 0.39 mg/L (≈ 0.542 µM); MIC [17, 38]: 0.78 mg/L (≈ 1.08 µM); MIC [22]: 0.25 mg/L (≈ 0.348 µM); MIC ([23]; agar dilution, Staphylococcus aureus X400, methicillin-resistant strain, read-out: MIC): 0.5 mg/L (≈ 0.695 µM); MIC [25, 39]: 0.125 mg/L (≈ 0.174 µM); MIC [27, 40]: 0.125 mg/L (≈ 0.174 µM); MIC [29, 41]: 1 mg/L (≈ 1.39 µM); MIC [30, 42]: 1 mg/L (≈ 1.39 µM); MIC [31]: 0.25 mg/L (≈ 0.348 µM)
